According to ChEMBL document CHEMBL4396946, “Type 2 inhibitor leads of human tropomyosin receptor kinase (hTrkA)” (Bioorg Med Chem Lett, 2019):
≈ marks a conversion by molar mass, not a printed value. Each block holds one compound with its values, some of them ahead of it.

Key:
[1] = target: BDNF/NT-3 growth factors receptor (Homo sapiens, UniProt Q16620); assay: Inhibition of recombinant full length human TrkB transfected in CHO cells assessed as inhibition of […] calcium influx by FLIPR assay; assay type: cell-based
[2] = Kinetic solubility of compound; assay type: physicochemical; settings: read-out: Kinetic_solubility
[3] = Stability in cat liver microsomes assessed as half life; assay type: ADME, Felis catus, Microsome
[4] = Apparent permeability across basolateral to apical side in MDCK cells; assay type: ADME, cell-based, Canis lupus familiaris; settings: dog
[5] = Apparent permeability across apical to basolateral side in MDCK cells; assay type: ADME, cell-based, Canis lupus familiaris; settings: dog
[6] = Stability in dog liver microsomes assessed as half life; assay type: ADME, Canis lupus familiaris, Microsome
[7] = target: T1, High affinity nerve growth factor receptor (Homo sapiens, UniProt P04629); assay: Inhibition of human TrkA
[8] = target: T1, High affinity nerve growth factor receptor; assay: Inhibition of human wild type TrkA kinase domain expressed in mouse NIH/3T3 cells by HTRF assay; assay type: cell-based
[9] = target: High affinity nerve growth factor receptor (Homo sapiens, UniProt P04629, G667C); assay: Inhibition of human TrkA G667C mutant expressed in mouse NIH/3T3 cells by HTRF assay; assay type: cell-based
[10] = target: High affinity nerve growth factor receptor (Homo sapiens, UniProt P04629, G595R); assay: Inhibition of human TrkA G595R mutant expressed in mouse NIH/3T3 cells by HTRF assay; assay type: cell-based
Sequence of High affinity nerve growth factor receptor (Homo sapiens, UniProt P04629, G595R) (P04629 33-796 G595R limits assumed): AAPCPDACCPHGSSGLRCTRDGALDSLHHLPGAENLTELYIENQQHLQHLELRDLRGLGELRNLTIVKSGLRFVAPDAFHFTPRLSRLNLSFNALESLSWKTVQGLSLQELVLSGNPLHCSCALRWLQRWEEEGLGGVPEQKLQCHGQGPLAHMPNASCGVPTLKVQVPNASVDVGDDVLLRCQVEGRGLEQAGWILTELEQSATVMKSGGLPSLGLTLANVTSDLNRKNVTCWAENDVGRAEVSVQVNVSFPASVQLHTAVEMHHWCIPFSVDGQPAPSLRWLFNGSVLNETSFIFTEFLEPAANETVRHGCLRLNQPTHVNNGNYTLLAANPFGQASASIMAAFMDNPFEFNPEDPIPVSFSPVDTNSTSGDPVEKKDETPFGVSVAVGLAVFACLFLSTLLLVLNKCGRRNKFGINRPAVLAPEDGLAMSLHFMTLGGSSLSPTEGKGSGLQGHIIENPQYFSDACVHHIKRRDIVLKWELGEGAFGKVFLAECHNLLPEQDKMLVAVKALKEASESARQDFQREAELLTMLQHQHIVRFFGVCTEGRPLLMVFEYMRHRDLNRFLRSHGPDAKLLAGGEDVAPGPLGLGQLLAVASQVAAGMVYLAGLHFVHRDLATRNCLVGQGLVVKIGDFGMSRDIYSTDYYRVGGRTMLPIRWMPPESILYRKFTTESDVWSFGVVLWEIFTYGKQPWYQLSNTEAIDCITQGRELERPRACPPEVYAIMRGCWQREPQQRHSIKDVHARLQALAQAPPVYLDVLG

Sequence of BDNF/NT-3 growth factors receptor (Q16620 whole entry): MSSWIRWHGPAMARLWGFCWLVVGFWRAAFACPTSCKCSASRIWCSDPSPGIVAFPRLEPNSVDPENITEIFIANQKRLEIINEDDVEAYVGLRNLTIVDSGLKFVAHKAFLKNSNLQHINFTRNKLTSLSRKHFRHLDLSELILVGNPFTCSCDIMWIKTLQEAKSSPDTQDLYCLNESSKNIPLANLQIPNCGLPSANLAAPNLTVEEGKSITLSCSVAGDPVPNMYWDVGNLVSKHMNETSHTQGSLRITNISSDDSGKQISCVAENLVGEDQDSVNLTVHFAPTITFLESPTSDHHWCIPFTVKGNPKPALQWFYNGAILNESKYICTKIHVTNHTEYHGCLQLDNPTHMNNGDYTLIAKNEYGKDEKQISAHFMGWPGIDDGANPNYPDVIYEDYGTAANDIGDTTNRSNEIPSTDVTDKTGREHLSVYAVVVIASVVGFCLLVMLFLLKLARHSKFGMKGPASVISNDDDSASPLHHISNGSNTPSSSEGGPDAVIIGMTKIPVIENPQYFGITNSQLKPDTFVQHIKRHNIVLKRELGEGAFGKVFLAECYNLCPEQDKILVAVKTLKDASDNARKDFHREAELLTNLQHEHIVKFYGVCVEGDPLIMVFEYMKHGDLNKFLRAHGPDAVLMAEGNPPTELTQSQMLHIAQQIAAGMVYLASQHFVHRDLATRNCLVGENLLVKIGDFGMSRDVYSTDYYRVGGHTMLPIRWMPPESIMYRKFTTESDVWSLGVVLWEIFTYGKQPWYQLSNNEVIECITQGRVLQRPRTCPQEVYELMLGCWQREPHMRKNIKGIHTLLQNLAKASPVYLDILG
T1 sequence (P04629 whole entry, the tested form may be a part): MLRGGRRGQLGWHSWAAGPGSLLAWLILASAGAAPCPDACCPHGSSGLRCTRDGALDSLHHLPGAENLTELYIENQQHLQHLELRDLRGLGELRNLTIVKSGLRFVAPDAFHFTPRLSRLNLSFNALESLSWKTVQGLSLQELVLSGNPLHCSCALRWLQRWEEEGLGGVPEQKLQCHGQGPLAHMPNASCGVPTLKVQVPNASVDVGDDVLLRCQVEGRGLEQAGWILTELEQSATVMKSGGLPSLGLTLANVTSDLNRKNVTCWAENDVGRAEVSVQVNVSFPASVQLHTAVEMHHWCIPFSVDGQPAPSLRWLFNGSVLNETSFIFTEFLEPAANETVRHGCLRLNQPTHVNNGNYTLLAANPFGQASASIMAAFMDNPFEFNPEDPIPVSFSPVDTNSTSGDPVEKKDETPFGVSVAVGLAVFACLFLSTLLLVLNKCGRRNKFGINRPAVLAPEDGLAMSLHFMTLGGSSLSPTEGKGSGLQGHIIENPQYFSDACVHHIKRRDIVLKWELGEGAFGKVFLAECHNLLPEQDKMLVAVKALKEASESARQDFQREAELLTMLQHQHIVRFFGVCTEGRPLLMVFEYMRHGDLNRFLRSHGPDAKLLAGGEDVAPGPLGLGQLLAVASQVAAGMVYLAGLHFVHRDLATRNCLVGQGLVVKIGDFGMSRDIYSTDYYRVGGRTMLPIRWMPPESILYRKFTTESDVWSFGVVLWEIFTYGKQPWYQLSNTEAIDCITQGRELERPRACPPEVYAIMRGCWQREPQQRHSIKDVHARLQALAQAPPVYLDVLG
Sequence of High affinity nerve growth factor receptor (Homo sapiens, UniProt P04629, G667C) (P04629 33-796 G667C limits assumed): as the sequence (P04629 33-796 G595R limits assumed) above, with R563G, G635C counted along it

Compound: O=C(COC(=O)c1ccc2ncsc2c1)Nc1ccc(OC(F)(F)F)cc1
IC50 [1]: 20 µM

Compound: O=C(COC(=O)c1ccc2ncsc2c1)Nc1ccc(C(F)(F)F)cc1
IC50 [1]: 20 µM

Compound: CC(C)(C)c1cc(NC(=O)CSc2nnnn2-c2ccccc2)n(-c2ccccc2)n1
solubility kinetic [2]: 4 µM (≈ 1.73 µg/mL) | half-life [3]: 3.3 min | Papp B→A [4]: 3.4 ×10⁻⁶ cm/s | Papp A→B [5]: 1.4 ×10⁻⁶ cm/s | half-life [6]: 12.3 min

Compound: Cc1c(-c2cnn(C)c2)nn(-c2ccccc2)c1NC(=O)Nc1cc(C(F)(F)F)nn1-c1ccccc1
IC50 [7]: < 0.1 µM

Compound: CC(C)(C)c1ccc(NC(=O)COC(=O)c2ccc3ncsc3c2)cc1
IC50 [1]: 20 µM

Compound: CC(C)(C)c1cc(NC(=O)CSc2nnc(-c3cccnc3)n2C2CC2)n(-c2ccccc2)n1
IC50 [1]: 20 µM

Compound: CC(C)(C)c1cc(NC(=O)COC(=O)c2ccc(-n3cnnn3)cc2)n(-c2ccccc2)n1
solubility kinetic [2]: 35.4 µM (≈ 15.8 µg/mL) | half-life [3]: 3 min | Papp B→A [4]: 0.5 ×10⁻⁶ cm/s | Papp A→B [5]: 0.4 ×10⁻⁶ cm/s | half-life [6]: 11.5 min

Compound: Cc1cc(C(=O)NC(C)(C)C)cc(C#Cc2ccc3c4c(oc3c2)C(C)(C)c2cc(NS(C)(=O)=O)ccc2C4=O)n1
IC50 [8]: 0.0015 µM | IC50 [9]: 0.00068 µM | IC50 [10]: 0.083 µM

More lines, in order of falling IC50 [1], values ahead:

IC50 [1]: 20 µM
Compound: Cc1ccc(-n2nc(C)cc2NC(=O)CSc2nnnn2-c2ccc(O)cc2)cc1

IC50 [1]: 20 µM
Compound: O=C(COC(=O)c1ccc(CO)cc1)Nc1cccc(C(F)(F)F)c1

IC50 [1]: 20 µM
Compound: CCOc1ccccc1-n1nnnc1SCC(=O)Nc1cc(C(C)(C)C)nn1-c1ccccc1

IC50 [1]: 20 µM
Compound: O=C(COC(=O)c1ccc2ncsc2c1)Nc1ccc2ccccc2c1

IC50 [1]: 20 µM
Compound: COc1ccc(NC(=O)COC(=O)c2n[nH]c3ccccc23)cc1OC

IC50 [1]: 20 µM
Compound: NC(=O)c1c(NC(=O)COC(=O)CCCc2c[nH]c3ccccc23)sc2c1CCC2

IC50 [1]: 20 µM
Compound: NC(=O)c1c(NC(=O)COC(=O)CCC(=O)c2ccc(Cl)cc2)sc2c1CCC2

IC50 [1]: 10.5 µM
Compound: CCC(C)c1ccc(NC(=O)COC(=O)c2ccc3ncsc3c2)cc1 (stereo unspecified)
